Measurements published in PubChem BioAssay AID1963870 (Molecular Pharmacology Branch, DTP, NCI, 2024).

Test system: 292921-168-R-J2-PDC KRAS tumor spheroid viability
Assay: Anticancer human tumor 292921-168-R-J2-PDC patient-derived pancreatic carcinoma cell line growth inhibition [KRAS2]
Conditions: spheroids with HUVEC and MSC; for IC50: curve of first compound; for viability, T/C: stronger effect = lower value
Text: Multicellular complex tumor spheroid response to RAS pathway inhibitors in combination with a targeted agents in patient-derived cell lines with oncogenic KRAS variants from multiple cancer types
A high-throughput screen of multi-cell type tumor spheroids was designed to identify active combinations of targeted small molecules and KRAS pathway inhibitors. Complex spheroids include a stromal component modeled by human endothelial cells (HUVEC) and fibroblasts modeled by human mesenchymal stem cells (MSCs). The concentration ranges selected for each drug and investigational agent were based upon clinically achievable concentrations if the clinical Cmax of the agent was known.
Compounds. The drugs and investigational agents: BI-3406 (NSC825286), BAY-293 (NSC824723), batoprotafib (TNO155; NSC825523), sotorasib (AMG 510; NSC818433), MRTX1257 (NSC819558), elimusertib (BAY 1895344; NSC800525), molibresib (GSK525762; NSC774829), temuterkib (LY3214996; NSC803410), venetoclax (NSC766270), alisertib (NSC759677), olaparib (NSC753686), talazoparib (NSC767125), erdafitinib (NSC781556), ipatasertib (NSC767898), cabozantinib (NSC761068), nintedanib (NSC756659), abemaciclib (NSC768073), docetaxel (NSC628503), trametinib (NSC758246), and sapanisertib (NSC764658) were obtained from the National Cancer Institute (NCI) Developmental Therapeutics Program Chemical Repository. The FDA-approved anticancer drug set is available from the Developmental Therapeutics Program. […] The stock solutions were prepared in dimethyl sulfoxide (DMSO, Sigma-Aldrich, St. Louis, MO, cat. D2650) at 800-fold the tested concentration and stored at -70 degrees C prior to their use. All drugs and investigational agents were tested over a range starting from a high concentration at or near the clinical Cmax and decreasing in half-log increments. If the clinical Cmax for an agent had not been determined, the highest concentration tested was 10 microM.
Cell Culture. All cells were maintained in an incubator at 37 degrees C and 5% CO2 with 95% humidity. The PDC lines were cultured according to standard operating procedures established by the NCI PDMR (https://pdmr.cancer.gov/sops/default.htm). Briefly, all PDCs were thawed and cultured in Matrigel-coated flasks prepared with a working solution of 1X Ham's F-12 nutrient mix, without supplementation (Invitrogen, Waltham, MA, cat. 11765054), 100 U/mL penicillin-streptomycin (Invitrogen, cat. 15140122), and 2.5% Matrigel (Corning Inc., Corning, NY, cat. 354248) for the first three passages. All PDCs were cultured in complete DMEM/F-12 media containing advanced DMEM/F-12 (Invitrogen, cat. 12634028), 4.9% defined fetal bovine serum, heat inactivated (HyClone Laboratories Inc., Logan, UT, cat. SH30070.03HI), 389 ng/mL hydrocortisone (Sigma-Aldrich, cat. H4001), 9.7 ng/mL human EGF recombinant protein (Invitrogen, cat. PHG0313), 23.4 microg/mL adenine (Sigma-Aldrich, cat. A2786), 97.3 U/mL penicillin-streptomycin (Invitrogen, cat. 15140122), 1.9 mM L-glutamine (Invitrogen, cat. 25030081), and 9.7 microM Y-27632 dihydrochloride (Tocris Bioscience, Bristol, United Kingdom, cat. 1254). The PDCs were cultured in complete DMEM/F12 media without 9.7 microM Y-27632 dihydrochloride for at least two passages prior to the screen. The established cell line HOP-62 was cultured in RPMI 1640 medium, HEPES (Invitrogen, cat. 22400105) with 10% defined fetal bovine serum (HyClone Laboratories Inc., cat. SH30070.03) and 2 mM L-glutamine (Invitrogen, cat. 25030081). The pooled donor HUVEC were cultured in endothelial cell growth medium 2 (PromoCell, Heidelberg, Germany, cat. C-22011) and the hMSC were cultured in mesenchymal stem cell growth medium 2 (PromoCell, cat. C-28009). For all experiments, HUVEC and hMSC were used at passages </=5, while the malignant cell lines were used at passages </=15. […]

[1] = second compound 0.1 µM, first compound 0.0316 µM
[2] = second compound 0.1 µM, first compound 0.1 µM
[3] = second compound 0.316 µM, first compound 0.0316 µM
[4] = second compound 0.316 µM, first compound 0.1 µM
[5] = second compound 1 µM, first compound 0.0316 µM
[6] = second compound 1 µM, first compound 0.1 µM
[7] = second compound 3.16 µM, first compound 0.0316 µM
[8] = second compound 3.16 µM, first compound 0.1 µM
[9] = second compound 10 µM, first compound 0.0316 µM
[10] = second compound 10 µM, first compound 0.1 µM
[11] = second compound 0.1 µM, first compound 0.316 µM
[12] = second compound 0.1 µM, first compound 1 µM
[13] = second compound 0.1 µM, first compound 3.16 µM
[14] = second compound 0.1 µM, first compound 10 µM
[15] = second compound 0.316 µM, first compound 0.316 µM
[16] = second compound 0.316 µM, first compound 1 µM
[17] = second compound 0.316 µM, first compound 3.16 µM
[18] = second compound 0.316 µM, first compound 10 µM
[19] = second compound 1 µM, first compound 0.316 µM
[20] = second compound 1 µM, first compound 1 µM
[21] = second compound 1 µM, first compound 3.16 µM
[22] = second compound 1 µM, first compound 10 µM
[23] = second compound 3.16 µM, first compound 0.316 µM
[24] = second compound 3.16 µM, first compound 1 µM
[25] = second compound 3.16 µM, first compound 3.16 µM
[26] = second compound 3.16 µM, first compound 10 µM
[27] = second compound 10 µM, first compound 0.316 µM
[28] = second compound 10 µM, first compound 1 µM
[29] = second compound 10 µM, first compound 3.16 µM
[30] = second compound 10 µM, first compound 10 µM
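Also: drug exposure lasted seven days after spheroids formed for three days.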
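For viability, T/C in this document: percent of DMSO vehicle control viability which is 100%.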

| SMILES | IC50 (second compound 0.1 µM) | IC50 (second compound 0.316 µM) | IC50 (second compound 1 µM) | IC50 (second compound 3.16 µM) | IC50 (second compound 10 µM) | viability, T/C [1] | viability, T/C [2] | viability, T/C [3] | viability, T/C [4] | viability, T/C [5] | viability, T/C [6] | viability, T/C [7] | viability, T/C [8] | viability, T/C [9] | viability, T/C [10] | viability, T/C [11] | viability, T/C [12] | viability, T/C [13] | viability, T/C [14] | viability, T/C [15] | also measured |
| --- | --- | --- | --- | --- | --- | --- | --- | --- | --- | --- | --- | --- | --- | --- | --- | --- | --- | --- | --- | --- | --- |
| CC(C)n1nc(-c2ccc3oc(N)nc3c2)c2c(N)ncnc21 + C=CC(=O)N1CCN(c2nc(=O)n(-c3c(C)ccnc3C(C)C)c3nc(-c4c(O)cccc4F)c(F)cc23)C(C)C1 | 0.00689 µM | 0.00961 µM | 0.0117 µM | 0.00493 µM | < 0.000316 µM | 32.8% | 27% | 33.6% | 29.7% | 38.3% | 32.3% | 36.7% | 30.9% | 29.5% | 27.1% |  |  |  |  |  | viability, T/C (second compound 0.1 µM, first compound 0.000316 µM): 107%; viability, T/C (second compound 0.1 µM, first compound 0.001 µM): 88.6%; viability, T/C (second compound 0.1 µM, first compound 0.00316 µM): 62%; viability, T/C (second compound 0.1 µM, first compound 0.01 µM): 44.5%; viability, T/C (second compound 0.316 µM, first compound 0.000316 µM): 111%; viability, T/C (second compound 0.316 µM, first compound 0.001 µM): 99.7%; viability, T/C (second compound 0.316 µM, first compound 0.00316 µM): 66.9%; viability, T/C (second compound 0.316 µM, first compound 0.01 µM): 53.6%; viability, T/C (second compound 1 µM, first compound 0.000316 µM): 121%; viability, T/C (second compound 1 µM, first compound 0.001 µM): 99.7%; viability, T/C (second compound 1 µM, first compound 0.00316 µM): 77.1%; viability, T/C (second compound 1 µM, first compound 0.01 µM): 50.4%; viability, T/C (second compound 3.16 µM, first compound 0.000316 µM): 68.4%; viability, T/C (second compound 3.16 µM, first compound 0.001 µM): 72.6%; viability, T/C (second compound 3.16 µM, first compound 0.00316 µM): 55.3%; viability, T/C (second compound 3.16 µM, first compound 0.01 µM): 40.1%; viability, T/C (second compound 10 µM, first compound 0.000316 µM): 26.3%; viability, T/C (second compound 10 µM, first compound 0.001 µM): 33.3%; viability, T/C (second compound 10 µM, first compound 0.00316 µM): 30%; viability, T/C (second compound 10 µM, first compound 0.01 µM): 31.2% |
| CC1(C)CCC(CN2CCN(c3ccc(C(=O)NS(=O)(=O)c4ccc(NCC5CCOCC5)c([N+](=O)[O-])c4)c(Oc4cnc5[nH]ccc5c4)c3)CC2)=C(c2ccc(Cl)cc2)C1 + C=CC(=O)N1CCN(c2nc(=O)n(-c3c(C)ccnc3C(C)C)c3nc(-c4c(O)cccc4F)c(F)cc23)C(C)C1 | 2.27 µM | 2.19 µM | 2.02 µM | 1.26 µM | < 0.0316 µM | 107% | 107% | 108% | 111% | 113% | 106% | 81.5% | 80.8% | 28.4% | 18.8% | 106% | 100% | 29.5% | 8.37% | 94.3% | viability, T/C [16]: 114%; viability, T/C [17]: 23.6%; viability, T/C [18]: 8.55%; viability, T/C [19]: 102%; viability, T/C [20]: 99.5%; viability, T/C [21]: 18.6%; viability, T/C [22]: 9.16%; viability, T/C [23]: 67.8%; viability, T/C [24]: 59.8%; viability, T/C [25]: 13.9%; viability, T/C [26]: 10.9%; viability, T/C [27]: 21.6%; viability, T/C [28]: 20.5%; viability, T/C [29]: 7.43%; viability, T/C [30]: 8.6% |
| COc1cc2nccc(Oc3ccc(NC(=O)C4(C(=O)Nc5ccc(F)cc5)CC4)cc3)c2cc1OC + C=CC(=O)N1CCN(c2nc(=O)n(-c3c(C)ccnc3C(C)C)c3nc(-c4c(O)cccc4F)c(F)cc23)C(C)C1 | 1.96 µM | 2 µM | 1.68 µM | 0.822 µM | < 0.0316 µM | 102% | 102% | 122% | 112% | 111% | 108% | 74.1% | 77.6% | 18.9% | 25.4% | 103% | 79.6% | 28.9% | 18.6% | 102% | viability, T/C [16]: 77%; viability, T/C [17]: 30.9%; viability, T/C [18]: 19.8%; viability, T/C [19]: 96.3%; viability, T/C [20]: 69.3%; viability, T/C [21]: 27%; viability, T/C [22]: 17.2%; viability, T/C [23]: 62.9%; viability, T/C [24]: 49.6%; viability, T/C [25]: 18.9%; viability, T/C [26]: 14%; viability, T/C [27]: 15.7%; viability, T/C [28]: 22.5%; viability, T/C [29]: 11.1%; viability, T/C [30]: 6.69% |
